ChEMBL document CHEMBL1921668, “Discovery of new aminopyrimidine-based phosphoinositide 3-kinase beta (PI3Kβ) inhibitors with selectivity over PI3Kα” (Bioorg Med Chem Lett, 2011)

What was measured:
[1] = molecular target: T1, Phosphatidylinositol 4,5-bisphosphate 3-kinase catalytic subunit beta isoform (Homo sapiens, UniProt P42338); test: Inhibition of PI3Kbeta assessed as enzyme activity at 10 uM relative to control; design: scale not given: the % may be the effect or the level left
Target sequence in this assay (P42338 whole entry, looked up, canonical isoform): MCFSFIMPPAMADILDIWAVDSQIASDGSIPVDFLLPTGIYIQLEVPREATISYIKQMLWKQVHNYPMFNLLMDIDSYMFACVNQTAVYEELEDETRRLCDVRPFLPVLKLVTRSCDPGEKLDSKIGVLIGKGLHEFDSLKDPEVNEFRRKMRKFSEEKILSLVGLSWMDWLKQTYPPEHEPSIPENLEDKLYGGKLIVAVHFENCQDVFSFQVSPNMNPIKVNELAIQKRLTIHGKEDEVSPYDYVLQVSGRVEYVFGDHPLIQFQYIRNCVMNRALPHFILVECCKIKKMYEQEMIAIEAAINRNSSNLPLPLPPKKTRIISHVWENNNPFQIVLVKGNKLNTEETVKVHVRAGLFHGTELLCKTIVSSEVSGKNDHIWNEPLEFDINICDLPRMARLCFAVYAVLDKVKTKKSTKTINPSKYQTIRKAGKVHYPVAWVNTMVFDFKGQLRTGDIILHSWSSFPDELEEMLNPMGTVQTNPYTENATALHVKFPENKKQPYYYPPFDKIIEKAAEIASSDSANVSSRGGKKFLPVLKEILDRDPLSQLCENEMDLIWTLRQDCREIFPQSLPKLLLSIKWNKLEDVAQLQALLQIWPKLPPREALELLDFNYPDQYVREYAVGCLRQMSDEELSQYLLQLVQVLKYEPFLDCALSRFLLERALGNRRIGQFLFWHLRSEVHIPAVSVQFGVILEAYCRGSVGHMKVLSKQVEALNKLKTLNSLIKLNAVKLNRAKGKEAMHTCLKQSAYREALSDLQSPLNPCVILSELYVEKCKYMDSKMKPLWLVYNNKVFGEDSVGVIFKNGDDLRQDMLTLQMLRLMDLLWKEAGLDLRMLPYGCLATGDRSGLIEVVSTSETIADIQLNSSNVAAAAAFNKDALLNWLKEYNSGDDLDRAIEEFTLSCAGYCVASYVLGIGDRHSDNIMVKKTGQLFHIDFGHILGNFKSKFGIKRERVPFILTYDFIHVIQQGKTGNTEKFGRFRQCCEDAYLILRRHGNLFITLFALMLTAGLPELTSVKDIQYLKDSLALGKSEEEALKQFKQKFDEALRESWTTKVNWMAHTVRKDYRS

[2] = molecular target: T2, Phosphatidylinositol 4,5-bisphosphate 3-kinase catalytic subunit alpha isoform (Homo sapiens, UniProt P42336); test: Inhibition of PI3Kalpha assessed as enzyme activity at 10 uM relative to control; design: scale not given: the % may be the effect or the level left
T2 sequence (P42336 whole entry, canonical isoform): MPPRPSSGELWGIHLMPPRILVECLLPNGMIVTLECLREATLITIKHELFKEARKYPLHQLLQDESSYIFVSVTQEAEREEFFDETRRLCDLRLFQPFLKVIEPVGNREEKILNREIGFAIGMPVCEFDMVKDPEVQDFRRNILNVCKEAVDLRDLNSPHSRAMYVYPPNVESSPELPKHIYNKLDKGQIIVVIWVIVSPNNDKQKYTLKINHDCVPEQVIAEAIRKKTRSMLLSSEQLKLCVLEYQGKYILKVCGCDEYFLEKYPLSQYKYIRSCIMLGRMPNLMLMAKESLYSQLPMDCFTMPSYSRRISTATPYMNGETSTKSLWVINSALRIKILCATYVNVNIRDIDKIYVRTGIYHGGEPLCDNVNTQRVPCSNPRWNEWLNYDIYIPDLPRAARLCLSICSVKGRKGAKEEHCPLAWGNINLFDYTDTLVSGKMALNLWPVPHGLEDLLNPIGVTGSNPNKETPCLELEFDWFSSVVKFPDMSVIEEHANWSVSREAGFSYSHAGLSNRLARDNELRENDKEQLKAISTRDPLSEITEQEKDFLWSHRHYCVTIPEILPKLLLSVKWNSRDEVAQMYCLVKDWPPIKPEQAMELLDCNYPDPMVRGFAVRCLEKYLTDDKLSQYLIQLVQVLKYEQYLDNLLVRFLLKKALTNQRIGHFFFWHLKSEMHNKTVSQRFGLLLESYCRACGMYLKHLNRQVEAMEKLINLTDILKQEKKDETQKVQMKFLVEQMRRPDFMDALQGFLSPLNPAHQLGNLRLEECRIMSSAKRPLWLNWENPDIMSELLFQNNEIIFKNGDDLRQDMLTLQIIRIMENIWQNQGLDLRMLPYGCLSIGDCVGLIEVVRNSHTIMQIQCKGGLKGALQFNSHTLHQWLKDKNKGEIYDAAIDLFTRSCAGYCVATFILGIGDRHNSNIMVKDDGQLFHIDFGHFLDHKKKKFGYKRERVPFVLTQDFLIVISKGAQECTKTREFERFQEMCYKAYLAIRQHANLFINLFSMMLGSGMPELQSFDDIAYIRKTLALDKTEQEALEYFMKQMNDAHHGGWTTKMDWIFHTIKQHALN

[3] = molecular target: T1, Phosphatidylinositol 4,5-bisphosphate 3-kinase catalytic subunit beta isoform; test: Binding affinity to PI3Kbeta
Target sequence in this assay (P42338 whole entry, canonical isoform): as the sequence (P42338 whole entry, looked up, canonical isoform) above

[4] = molecular target: Phosphatidylinositol 4,5-bisphosphate 3-kinase catalytic subunit gamma isoform (Homo sapiens) (UniProt P48736); test: Inhibition of PI3Kgamma assessed as enzyme activity relative to control; design: scale not given: the % may be the effect or the level left
Chain of Phosphatidylinositol 4,5-bisphosphate 3-kinase catalytic subunit gamma isoform (Homo sapiens) (P48736 whole entry, looked up, canonical isoform): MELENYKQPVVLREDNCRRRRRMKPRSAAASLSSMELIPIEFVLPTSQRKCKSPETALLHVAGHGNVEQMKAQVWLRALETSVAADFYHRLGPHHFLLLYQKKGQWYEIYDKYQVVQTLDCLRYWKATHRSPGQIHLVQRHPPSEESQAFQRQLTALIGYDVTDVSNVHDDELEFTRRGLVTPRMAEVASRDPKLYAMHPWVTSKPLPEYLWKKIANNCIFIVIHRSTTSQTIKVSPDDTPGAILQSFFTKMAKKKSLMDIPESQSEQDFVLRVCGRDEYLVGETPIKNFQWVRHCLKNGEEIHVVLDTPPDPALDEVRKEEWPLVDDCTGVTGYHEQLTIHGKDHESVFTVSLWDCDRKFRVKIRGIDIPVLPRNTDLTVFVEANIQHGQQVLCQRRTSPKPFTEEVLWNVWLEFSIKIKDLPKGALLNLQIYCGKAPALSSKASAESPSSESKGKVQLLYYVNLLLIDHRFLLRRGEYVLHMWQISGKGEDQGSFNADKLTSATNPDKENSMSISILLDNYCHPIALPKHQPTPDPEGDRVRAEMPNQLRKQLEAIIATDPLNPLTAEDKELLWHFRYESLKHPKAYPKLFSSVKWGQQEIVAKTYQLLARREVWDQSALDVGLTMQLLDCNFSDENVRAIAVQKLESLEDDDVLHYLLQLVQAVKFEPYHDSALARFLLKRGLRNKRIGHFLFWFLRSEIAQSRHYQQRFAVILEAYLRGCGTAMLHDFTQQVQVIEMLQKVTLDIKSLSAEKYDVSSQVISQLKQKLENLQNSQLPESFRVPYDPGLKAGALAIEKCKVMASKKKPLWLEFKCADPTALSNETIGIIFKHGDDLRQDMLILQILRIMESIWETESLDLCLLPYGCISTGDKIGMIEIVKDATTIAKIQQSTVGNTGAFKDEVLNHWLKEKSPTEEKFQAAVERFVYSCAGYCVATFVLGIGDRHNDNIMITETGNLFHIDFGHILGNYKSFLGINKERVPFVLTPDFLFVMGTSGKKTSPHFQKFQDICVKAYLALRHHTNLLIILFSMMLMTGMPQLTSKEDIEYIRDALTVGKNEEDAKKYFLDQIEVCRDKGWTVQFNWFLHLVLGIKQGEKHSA

[5] = molecular target: T3, Phosphatidylinositol 4,5-bisphosphate 3-kinase catalytic subunit delta isoform (Homo sapiens) (UniProt O00329); test: Inhibition of PI3Kdelta assessed as enzyme activity relative to control; design: concentration or dose not given beside the values
T3 sequence (whole entry): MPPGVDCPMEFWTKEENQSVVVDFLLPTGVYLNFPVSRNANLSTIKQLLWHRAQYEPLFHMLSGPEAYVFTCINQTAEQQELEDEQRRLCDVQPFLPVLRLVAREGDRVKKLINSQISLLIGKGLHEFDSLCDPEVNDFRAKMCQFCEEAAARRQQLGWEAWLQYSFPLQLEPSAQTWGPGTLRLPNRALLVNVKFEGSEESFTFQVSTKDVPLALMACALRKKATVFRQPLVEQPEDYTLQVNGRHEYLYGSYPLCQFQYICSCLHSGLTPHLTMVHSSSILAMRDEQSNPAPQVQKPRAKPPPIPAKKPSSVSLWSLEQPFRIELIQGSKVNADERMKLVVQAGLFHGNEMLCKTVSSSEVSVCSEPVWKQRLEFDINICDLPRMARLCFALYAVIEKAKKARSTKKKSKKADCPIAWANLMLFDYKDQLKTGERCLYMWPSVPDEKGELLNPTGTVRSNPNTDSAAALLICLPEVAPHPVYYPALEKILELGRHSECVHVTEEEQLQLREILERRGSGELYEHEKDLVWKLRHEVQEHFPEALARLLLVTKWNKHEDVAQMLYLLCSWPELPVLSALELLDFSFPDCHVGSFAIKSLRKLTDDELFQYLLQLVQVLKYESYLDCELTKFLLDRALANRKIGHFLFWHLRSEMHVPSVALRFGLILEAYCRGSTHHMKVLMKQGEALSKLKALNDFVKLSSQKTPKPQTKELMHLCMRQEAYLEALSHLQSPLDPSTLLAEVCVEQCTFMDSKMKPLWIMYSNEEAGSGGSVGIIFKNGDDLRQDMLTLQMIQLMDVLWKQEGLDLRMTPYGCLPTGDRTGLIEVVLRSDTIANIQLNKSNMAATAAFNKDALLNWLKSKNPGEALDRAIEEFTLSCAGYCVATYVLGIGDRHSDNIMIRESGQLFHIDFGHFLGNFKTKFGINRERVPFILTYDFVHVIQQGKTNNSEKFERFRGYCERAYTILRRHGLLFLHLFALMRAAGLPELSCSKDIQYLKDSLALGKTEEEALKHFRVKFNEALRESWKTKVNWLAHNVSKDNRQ

[6] = molecular target: Serine/threonine-protein kinase mTOR (Homo sapiens) (UniProt P42345); test: Inhibition of mTOR assessed as enzyme activity relative to control; design: concentration or dose not given beside the values
[7] = molecular target: T2, Phosphatidylinositol 4,5-bisphosphate 3-kinase catalytic subunit alpha isoform; test: Binding affinity to PI3Kalpha
T47D = test: Antiproliferative activity against human T47D cells by MTT assay; format: functional, cell-based

Row | Structure (SMILES) | Activity [1] [%] | Activity [2] [%] | Kd [3] [nM] | Activity [4] [%] | Activity [5] [%] | Activity [6] [%] | Kd [7] [nM] | IC50 (T47D) [nM]
1 | O=S(=O)(Nc1cncc(-c2cccnc2)c1)c1ccccc1 | 7.4 | 52 |  |  |  |  |  | 
2 | Nc1cncc(-c2cnc(N)nc2)c1 | 86 | 98 | > 40000 | 100 | 82 | 53 |  | 
3 | Nc1ncc(-c2cncc(NS(=O)(=O)c3ccc4ccccc4c3)c2)cn1 | 1 | 92 | 230 | 25 | 4.2 | 96 | > 40000 | 
4 | CS(=O)(=O)Nc1cncc(-c2cnc(N)nc2)c1 | 28 | 62 | 5200 | 43 | 38 | 67 |  | 
5 | COc1ccc(S(=O)(=O)Nc2cncc(-c3cnc(N)nc3)c2)cc1 | 1.7 | 87 | 500 | 20 | 4.3 | 39 |  | 
6 | Nc1ncc(-c2cncc(NS(=O)(=O)c3cccc(C(F)(F)F)c3)c2)cn1 | 1.2 | 30 | 430 | 9.6 | 0.9 | 41 |  | 
7 | Nc1ncc(-c2cncc(NS(=O)(=O)c3ccc([N+](=O)[O-])cc3)c2)cn1 | 1.6 | 18 | 550 | 6.7 | 9.5 | 68 |  | 
8 | Nc1ncc2cc(-c3cncc(NS(=O)(=O)c4ccccc4)c3)ccc2n1 | 0 | 0 |  |  |  |  |  | 
9 | CNc1ncc(-c2cncc(NS(=O)(=O)c3ccccc3)c2)cn1 | 5.2 | 39 |  |  |  |  |  | 
10 | Nc1ncc(-c2cncc(NS(=O)(=O)c3ccccc3)c2)cn1 | 1.4 | 60 | 360 | 24 | 4.2 | 74 |  | 9600
11 | Cc1nc(N)ncc1-c1cncc(NS(=O)(=O)c2ccccc2)c1 | 5.2 | 66 |  |  |  |  |  | 
12 | CN(C)c1ncc(-c2cncc(NS(=O)(=O)c3ccccc3)c2)cn1 | 66 | 100 |  |  |  |  |  | 
13 | O=S(=O)(Nc1cncc(-c2ccc3nccn3c2)c1)c1ccccc1 | 0.6 | 4 |  |  |  |  |  | 
14 | Cc1nc(N)nc(C)c1-c1cncc(NS(=O)(=O)c2ccccc2)c1 | 18 | 89 |  |  |  |  |  | 
15 | Cc1ccc(S(=O)(=O)Nc2cncc(-c3cnc(N)nc3)c2)cc1[N+](=O)[O-] | 0.7 | 42 | 250 | 5.3 | 0.1 | 78 |  | 
16 | O=S(=O)(Nc1cncc(-c2cnc3nccn3c2)c1)c1ccccc1 | 39 | 95 |  |  |  |  |  | 
17 | O=S(=O)(Nc1cncc(-c2cnc3[nH]ccc3c2)c1)c1ccccc1 | 4.9 | 56 |  |  |  |  |  | 
18 | Nc1ncc(-c2cncc(NS(=O)(=O)c3ccc(F)cc3F)c2)cn1 | 0.7 | 22 | 220 | 7.2 | 4.7 | 56 |  | 8500
19 | CC(=O)Nc1ncc(-c2cncc(NS(=O)(=O)c3ccccc3)c2)cn1 | 34 | 100 |  |  |  |  |  | 
20 | Cc1ccc(S(=O)(=O)Nc2cncc(-c3cnc(N)nc3)c2)cc1 | 0.5 | 17 | 100 | 8.2 | 3.4 | 76 |  | 4700
21 | CC(=O)Nc1cncc(-c2cnc(N)nc2)c1 | 69 | 97 | > 20000 | 98 | 65 | 79 |  | 
